Reference: the NIST ThermoML archive (doi:10.1016/j.jct.2013.08.013)

Assay: xn = mol fraction of the nth substance listed
Details: 101 kPa, Liquid; for speed of sound: Frequency=2 MHz, Linear variable-path acoustic interferometer; for mass density: Vibrating tube method

Cc1ccccc1Cl [2-chlorotoluene] + CCCCCCCO
Details	mass density, 298.15 K [kg/m3]	mass density, 303.15 K [kg/m3]	mass density, 308.15 K [kg/m3]	speed of sound, 298.15 K [m/s]	speed of sound, 303.15 K [m/s]	speed of sound, 308.15 K [m/s]
x1 = 0.0984	840.51	836.79	833.05	1324.4	1311	1289.7
x1 = 0.1921	861.75	857.88	853.98	1320.1	1306	1284
x1 = 0.2969	886.24	882.16	878.15	1313.6	1298.6	1276.2
x1 = 0.3983	910.69	906.43	902.26	1306.5	1290.7	1268.5
x1 = 0.4949	934.8	930.38	926.11	1299.3	1283.1	1260.9
x1 = 0.5961	960.97	956.41	952.02	1293.5	1276.2	1254.8
x1 = 0.7028	989.68	985.06	980.6	1289.2	1271.5	1250.4
x1 = 0.7968	1016.16	1011.5	1006.94	1287.7	1270.3	1249.7
x1 = 0.8993	1046.27	1041.59	1036.99	1289.1	1273.5	1254.3
x1 = 1	1077.38	1072.8	1068.21	1299.8	1283.6	1265.6

Cc1ccccc1Cl [2-chlorotoluene] + CCCCCCO
Details	mass density, 298.15 K [kg/m3]	mass density, 303.15 K [kg/m3]	mass density, 308.15 K [kg/m3]	speed of sound, 298.15 K [m/s]	speed of sound, 303.15 K [m/s]	speed of sound, 308.15 K [m/s]
x1 = 0.0974	839.69	835.89	832.09	1304.1	1287	1268.7
x1 = 0.1968	864.67	860.71	856.77	1302	1284.3	1266
x1 = 0.3046	892	887.87	883.78	1298.3	1280.2	1260.7
x1 = 0.3967	915.57	911.34	907.1	1294.3	1275.7	1255.7
x1 = 0.489	939.38	934.99	930.68	1290.1	1271.1	1250.9
x1 = 0.5955	967.24	962.7	958.3	1286.1	1266.2	1246.3
x1 = 0.6902	992.34	987.72	983.26	1283.6	1264.1	1244.4
x1 = 0.8086	1024.27	1019.61	1015.04	1284.7	1265.4	1246.2
x1 = 0.8949	1047.98	1043.25	1038.71	1289.1	1270.5	1250
x1 = 1	1077.38	1072.8	1068.21	1299.8	1283.6	1265.6
